The text below walks through data of PubChem BioAssay AID1996.

In brackets after ≈: the same amount, converted by molar mass. Bounds are passed on as bounds.

The conditions of the data set: buffer; pH 7.4; 200.0 µM.
As a reminder, the solubility (kinetic) is the concentration staying in solution when a stock, usually in DMSO, is diluted into the medium. For `Cc1ccccc1N1CCN(C(=O)NCc2cccc(Cl)c2)CC1`, the kinetic solubility is 3.3 µg/mL (≈ 9.6 µM). The molecule `O=S(=O)(NCCc1ccccn1)c1ccc(-c2ccccn2)s1` yielded a solubility (kinetic) of 30.6 µg/mL (≈ 88.6 µM). As for `CC(=O)Nc1ccc(S(=O)(=O)NC(C)CCc2ccccc2)cc1` (stereo unspecified), the figure is over 52 µg/mL; as for `O=C(COc1cc(Cl)ccc1Cl)Nc1ccc2[nH]c(=O)[nH]c2c1`, 2.7 µg/mL (≈ 7.67 µM); as for `Cc1nc(SCc2ccccc2F)c2oc3ccccc3c2n1`, under 0.3 µg/mL. Molecule `CCC(C)c1ccccc1NC(=O)COC(=O)C1=NN(c2ccccc2)C(=O)CC1` (stereo unspecified) returned a kinetic solubility of over 61.1 µg/mL. Molecule `COc1cc(OC)c(C(=O)O/N=C(\N)c2ccccn2)cc1OC` had a solubility (kinetic) of over 49.7 µg/mL. As for `CCOC(=O)N1CCc2c(sc(NC(=O)CN(CC)CC)c2C#N)C1`, the figure is over 54.7 µg/mL. The molecule `COc1ccc(CC(=O)NC2CCCCCC2)c(OC)c1` showed a solubility (kinetic) of 37.6 µg/mL (≈ 129 µM). `Cc1ccc(NC(=O)NC2CCCCCCC2)cc1` showed a kinetic solubility of under 0.3 µg/mL.

In the case of `COc1nc2c(c(-c3cc(Br)cs3)c1C#N)Cc1ccccc1-2`, the solubility (kinetic) was under 0.4 µg/mL. In turn, `N#Cc1ccc(Sc2ccccn2)c([N+](=O)[O-])c1` yielded a kinetic solubility of 36.5 µg/mL (≈ 142 µM). Consider `O=S(=O)(/N=C/c1c(O)ccc2ccccc12)c1ccccc1`, for which the solubility (kinetic) was over 46.7 µg/mL. `Cc1csc(NC(=O)CSc2ccc([N+](=O)[O-])cn2)n1` gave a solubility (kinetic) of 33.8 µg/mL (≈ 109 µM).

For the molecule `CC(CN1CCCCC1)OC(=O)c1ccco1.Cl` (stereo unspecified), the solubility (kinetic) is over 41.1 µg/mL. As for `O=c1[nH]c(=O)n([C@H]2C[C@H](O)[C@@H](CO)O2)cc1C(F)(F)F`, the figure is over 44.4 µg/mL; as for `CCOc1ccc(CNC(=O)c2ccco2)cc1`, over 36.8 µg/mL; as for `COCCCn1c(=O)c2sccc2n(Cc2ccccc2)c1=O`, 49.4 µg/mL (≈ 150 µM).

With `O=c1onc(-c2c(F)cccc2F)n1-c1ccccc1Cl`, the kinetic solubility came to 1 µg/mL (≈ 3.24 µM). `Cc1ccc(NC(=O)COC(=O)CCNS(=O)(=O)c2c(Cl)cccc2Cl)cc1` returned a kinetic solubility of 48.5 µg/mL (≈ 109 µM). `CCOC(=O)C1(Cc2ccccc2)CCCN(C(=O)C=C(C)C)C1` (stereo unspecified) came in with a kinetic solubility of 46.8 µg/mL (≈ 142 µM).

Turning to `N#Cc1ccc(C(=O)OCC(=O)Nc2cccc(S(=O)(=O)NC3=NCCC3)c2)cc1`, the kinetic solubility is over 64 µg/mL. Turning to `COc1ccccc1-c1cc(-c2ccccc2)nc(=O)[nH]1`, the solubility (kinetic) is over 41.7 µg/mL. `Cc1ccc([N+](=O)[O-])cc1NC(=O)CNC1CCCCC1` had a kinetic solubility of 39 µg/mL (≈ 134 µM). Turning to `Cn1cc(C(=O)C(=O)N2CCOCC2)c2ccccc21`, the kinetic solubility is over 40.8 µg/mL. For the molecule `Cc1ccc2c(c1)N(Cc1cccc(F)c1)C(=O)C(C)O2` (stereo unspecified), the kinetic solubility is 12.7 µg/mL (≈ 44.5 µM).

As for `CS(=O)(=O)N(CC(=O)NCCSC1CCCCC1)c1ccccc1`, the solubility (kinetic) was determined as 40.5 µg/mL (≈ 109 µM).

In turn, `O=C1COc2ccc(S(=O)(=O)N3CCCCC3)cc2N1` showed a solubility (kinetic) of 43.3 µg/mL (≈ 146 µM).

In turn, `Cc1ccc(NC(=O)c2ccco2)c(NC(=O)c2ccccc2)c1` registered a kinetic solubility of 4.1 µg/mL (≈ 12.8 µM). In turn, `O=c1[nH]cnc2ccc([N+](=O)[O-])cc12` showed a solubility (kinetic) of over 28.7 µg/mL.

As to `COc1cc(S(=O)(=O)NCc2ccc3c(c2)OCO3)ccc1F`, the kinetic solubility is 14.8 µg/mL (≈ 43.6 µM). Consider `CCc1nc(SCC(=O)O)c2c3c(sc2n1)COC(C)(C)C3`, for which the kinetic solubility was over 50.8 µg/mL. For `Cc1cc(-c2ccccc2C(=O)Nc2ccccc2O)on1`, the kinetic solubility was over 44.1 µg/mL. As for `CC(=O)Nc1sc(C)c(C)c1C(=O)OCCOc1ccccc1`, the figure is 1.6 µg/mL (≈ 4.8 µM); as for `COc1ccc(CNC(=O)C2CCN(C(=O)c3ccco3)CC2)cc1`, 45.8 µg/mL (≈ 134 µM). For the molecule `CC(C)NC(=O)COc1ccccc1C#N`, the solubility (kinetic) is over 32.7 µg/mL. `Cn1c(=O)c(C(=O)NCc2ccccc2)c(O)c2ccccc21` had a kinetic solubility of under 0.3 µg/mL. Molecule `Cc1ccc(-c2nc3ccccc3nc2Cl)cc1` yielded a kinetic solubility of under 0.3 µg/mL. On to `C=CCOc1ccc(/C=C2\SC(=S)N(CCC(=O)O)C2=O)cc1`, for which the solubility (kinetic) is 48 µg/mL (≈ 137 µM).

`O=C(COC(=O)c1cccnc1Cl)NC1CCCCCC1` yielded a solubility (kinetic) of over 46.6 µg/mL. In turn, `CCCCN(Cc1ccccc1)C1CCN(Cc2ccccc2)CC1` showed a kinetic solubility of 27.3 µg/mL (≈ 81.1 µM).

For `O=C1NC(Cc2c[nH]c3ccccc23)C(=O)N1Cc1ccccc1` (stereo unspecified), the kinetic solubility is over 47.9 µg/mL. For the molecule `O=S(=O)(Cc1noc(-c2ccccc2Cl)n1)c1ccccn1`, the solubility (kinetic) was found to be 37.2 µg/mL (≈ 111 µM). `CCOC(=O)c1c2c([nH]c(=S)c1C#N)CCCC2` yielded a kinetic solubility of 29.5 µg/mL (≈ 112 µM). For the molecule `CCN(CC)S(=O)(=O)c1cc(NC(=O)CCc2c(C)noc2C)ccc1C`, the solubility (kinetic) is over 59 µg/mL. The molecule `C=CCNc1nc(Cl)nc(NC2CCCCC2)n1` registered a kinetic solubility of 6.9 µg/mL (≈ 25.8 µM). To `CCc1sc(C(=O)Nc2nc(-c3ccccn3)cs2)cc1C` belongs 2.9 µg/mL (≈ 8.8 µM). On to `CNC(=S)Nc1cccc(C(=O)O)c1`, for which the kinetic solubility was over 31.5 µg/mL. `CCS(=O)(=O)NCCc1csc(-c2ccc(OC)c(OC)c2)n1` had a solubility (kinetic) of 53.2 µg/mL (≈ 149 µM). Consider `Cc1cc(=O)[nH]c(SCCc2ccccc2)n1`, for which the solubility (kinetic) is 26.5 µg/mL (≈ 108 µM). `CN(C(=O)COC(=O)c1cc[n+]([O-])cc1)c1ccccc1` had a kinetic solubility of over 42.9 µg/mL.
